In patent US20050113413A1, “Naphthalene-1,5-disulfonic acid salts of a substituted 4-amino-1-(pyridylmethyl)piperidine compound” (priority 2003, published 2005):

Key:
Assay type in all cases: physicochemical
[1] = Chemical stability of salt forms (change in purity by HPLC upon storage); conditions: 40° C. and 75% relative humidity, 7 days; for % Change in Impurity A / % Change in Impurity B / % Change in Purity of Salt: HPLC Method D; for % Change in Purity of Salt: heat sealed polyethylene bags
Method: The chemical stability of each salt form was evaluated by determining the change in purity of the sample upon storage of the salt form at 40° C.
Prior to storage, each salt form was analyzed by HPLC (Method D) to determine sample purity and in particular, to determine the amount of the following impurities present in the sample: • A. 3-[4-{N-[7-(3-(S)-1-Carbamoyl-1,1-diphenylmethyl)pyrrolidin-1-yl)hept-1-yl]-N-(isopropyl)amino}piperidin-1-ylmethyl]-4-methoxy-1-methylpyridinium Salt (Impurity A); • B. 4-{N-[7-(3-(S)-1-Carbamoyl-1,1-diphenylmethyl)pyrrolidin-1-yl)hept-1-yl]-N-(isopropyl)amino}-1-(4-oxo-1,4-dihydropyrid-3-ylmethyl)piperidine (Impurity B).
Approximately 50-100 mg of the salt form was then placed in two heat sealed low density polyethylene bags. The bags were then placed into a stability chamber that was previously set at 40° C. and 75% relative humidity. After 7 days, the bags were removed and the contents were analyzed by HPLC.

[2] = Physical stability of encapsulated pharmaceutical formulations (appearance upon storage); conditions: both 25° C. and 60% relative humidity, and ambient temperature and relative humidity
Method: The physical stability of encapsulated pharmaceutical formulations containing certain salt forms was evaluated by determining any changes in appearance of the pharmaceutical formulation upon storage.
Capsules containing a 1:1 mixture (wt/wt) of the salt form and microcrystalline cellulose (Avecil) were stored under of the following conditions: • (1) Capsules were placed inside an open container within a stability chamber that was previously set to 25° C. and 60% relative humidity; or • (2) Capsules were placed inside an open container on the bench top alongside a thermometer and hygrometer.
At periodic intervals, the appearance of each formulation was compared to its starting appearance and any differences were recorded.

[3] = Physical stability of salt forms (appearance upon storage in open vial); conditions: 30° C. and 60% relative humidity, listed as naphthalene-1,5-disulfonic acid salt
Method: The physical stability of certain salt forms was evaluated by determining any changes in appearance of the sample upon storage of the salt form at 30° C. and 60% relative humidity.
To an open vial was added 50-100 mg of each salt form. The open vials were placed in a stability chamber that was previously set at 30° C. and 60% relative humidity. At periodic intervals, the appearance of each salt form was compared to its starting appearance and any differences were recorded.

With `COc1ccncc1CN1CCC(N(CCCCCCCN2CC[C@@H](C(C(N)=O)(c3ccccc3)c3ccccc3)C2)C(C)C)CC1.O=C(O)c1ccccc1O.O=C(O)c1ccccc1O.O=C(O)c1ccccc1O` [Example 11E] the “% Change in Impurity A” value [1] was 1.22%, the “% Change in Impurity B” value [1] was 1.06% and the “% Change in Purity of Salt” value [1] was 2.7%.

With `COc1ccncc1CN1CCC(N(CCCCCCCN2CC[C@@H](C(C(N)=O)(c3ccccc3)c3ccccc3)C2)C(C)C)CC1.O=S(=O)(O)c1cccc2c(S(=O)(=O)O)cccc12` [Example 7] the “Appearance of pharmaceutical formulation upon storage (summary in words of Table III)” value [2] was “remained a free flowing powder”, the “Appearance Day 15” value [3] was “remained a free flowing powder” and the “Chemical stability (summary in words of Table I)” value [1] was “excellent chemical stability”. The “% Change in Impurity A” value [1] was less than 0.1%, the “% Change in Impurity B” value [1] was less than 0.1% and the “% Change in Purity of Salt” value [1] was 0.4%.

For `COc1ccncc1CN1CCC(N(CCCCCCCN2CC[C@@H](C(C(N)=O)(c3ccccc3)c3ccccc3)C2)C(C)C)CC1.O=C(O)c1cc(=O)[nH]c(=O)[nH]1.O=C(O)c1cc(=O)[nH]c(=O)[nH]1` [Example 11C], the “% Change in Impurity A” value [1] was 0.45%, the “% Change in Impurity B” value [1] was 0.49% and the “% Change in Purity of Salt” value [1] was 1.1%.

For `COc1ccncc1CN1CCC(N(CCCCCCCN2CC[C@@H](C(C(N)=O)(c3ccccc3)c3ccccc3)C2)C(C)C)CC1.O=C(O)C(O)C(O)C(=O)O` [Example 11B], the “Appearance of pharmaceutical formulation upon storage (summary in words of Table III)” value [2] was “formed a non-flowing granular cake”, the “% Change in Impurity A” value [1] was 0.26% and the “% Change in Impurity B” value [1] was 0.35%. The “% Change in Purity of Salt” value [1] was 0.8%.

In the case of `COc1ccncc1CN1CCC(N(CCCCCCCN2CC[C@@H](C(C(N)=O)(c3ccccc3)c3ccccc3)C2)C(C)C)CC1.CS(=O)(=O)O.CS(=O)(=O)O` [Example 9], the “% Change in Impurity A” value [1] was less than 0.1%, the “% Change in Impurity B” value [1] was less than 0.1% and the “% Change in Purity of Salt” value [1] was 0.9%.

For `COc1ccncc1CN1CCC(N(CCCCCCCN2CC[C@@H](C(C(N)=O)(c3ccccc3)c3ccccc3)C2)C(C)C)CC1.Cl.Cl` [Example 11G], the “% Change in Impurity A” value [1] was 1.16%, the “% Change in Impurity B” value [1] was 0.79% and the “% Change in Purity of Salt” value [1] was 3.6%.

In the case of `COc1ccncc1CN1CCC(N(CCCCCCCN2CC[C@@H](C(C(N)=O)(c3ccccc3)c3ccccc3)C2)C(C)C)CC1.CS(=O)(=O)O.CS(=O)(=O)O.CS(=O)(=O)O` [Example 10], the “% Change in Impurity A” value [1] was 9.41%, the “% Change in Impurity B” value [1] was 6.59% and the “% Change in Purity of Salt” value [1] was 16.4%.

With `COc1ccncc1CN1CCC(N(CCCCCCCN2CC[C@@H](C(C(N)=O)(c3ccccc3)c3ccccc3)C2)C(C)C)CC1.O=C(O)c1cc(O)ccc1O.O=C(O)c1cc(O)ccc1O` [Example 11F] the “% Change in Impurity A” value [1] was 0.21%, the “% Change in Impurity B” value [1] was 0.23% and the “% Change in Purity of Salt” value [1] was 0.4%.

In the case of `COc1ccncc1CN1CCC(N(CCCCCCCN2CC[C@@H](C(C(N)=O)(c3ccccc3)c3ccccc3)C2)C(C)C)CC1.O=C(O)c1ccccc1O.O=C(O)c1ccccc1O` [Example 11D], the “% Change in Impurity A” value [1] was 0.17%, the “% Change in Impurity B” value [1] was 0.19% and the “% Change in Purity of Salt” value [1] was 0.7%.

In the case of `COc1ccncc1CN1CCC(N(CCCCCCCN2CC[C@@H](C(C(N)=O)(c3ccccc3)c3ccccc3)C2)C(C)C)CC1.O=S(=O)(O)O` [Example 11A], the “% Change in Impurity A” value [1] was less than 0.1%, the “% Change in Impurity B” value [1] was 0.11% and the “% Change in Purity of Salt” value [1] was 0.8%.
